# Reference: the supplement of paper PMC10307832
# Legend:
# Test in all cases: relative viability (nuclei count vs DMSO), 5 days (fraction); higher = more cells survive
# [1] = system: NCI-H2126
# In short: (§1)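 Lung cancer cell lines were pin-tool dosed in 1536-well plates on the day after seeding, with either a lone drug or a fixed anchor-drug dose plus five library-drug doses (not always all listed) in √10 steps. Nuclei were counted on 4× images after 5 days. Relative viability is the ratio of treated-well to vehicle-well nuclei counts, with each value a median of duplicate plates.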
# [2] = system: UMC-11
# In short: as §1
# [3] = system: COR-L 105
# In short: as §1
# [4] = system: NCI-H1755
# In short: as §1
# [5] = system: NCI-H1975
# In short: as §1
# [6] = system: NCI-H1993
# In short: as §1
# [7] = system: NCI-H1666
# In short: as §1
# [8] = system: NCI-H3122
# In short: as §1
# [9] = system: ABC-1
# In short: as §1
# [10] = system: NCI-H2023
# In short: as §1
# [11] = system: HCC-78
# In short: as §1
# [12] = system: HOP-62
# In short: as §1
# [13] = system: NCI-H2085
# In short: as §1
# [14] = system: NCI-H322M
# In short: as §1
# [15] = system: LXF-289
# In short: as §1
# [16] = system: ChaGo-K-1
# In short: as §1
# [17] = system: HCC-15
# In short: as §1
# [18] = system: NCI-H1915
# In short: as §1
# [19] = system: NCI-H358
# In short: as §1
# [20] = system: NCI-H441
# In short: as §1
# [21] = system: EMC-BAC-2
# In short: as §1
# [22] = system: EPLC-272H
# In short: as §1
# [23] = system: NCI-H522
# In short: as §1
structure (smiles),measurement,setting,value
C[C@@H]1CN(CC(=O)Nc2ccc3c(c2)Cc2cccc(-c4cc(=O)cc(N5CCOCC5)o4)c2S3)C[C@H](C)O1 + Nc1ncn([C@H]2C[C@H](O)[C@@H](CO)O2)c(=O)n1 [Decitabine] (partner 2 µM),relative viability,[1]; first compound 0.04 µM,0.543
same,relative viability,[1]; first compound 0.1265 µM,0.567
same,relative viability,[1]; first compound 0.4 µM,0.623
same,relative viability,[1]; first compound 4 µM,0.593
same,relative viability,[2]; first compound 0.04 µM,0.477
same,relative viability,[2]; first compound 0.1265 µM,0.62
same,relative viability,[2]; first compound 0.4 µM,0.728
same,relative viability,[2]; first compound 4 µM,0.513
same,relative viability,[3]; first compound 0.04 µM,0.644
same,relative viability,[3]; first compound 0.1265 µM,0.661
same,relative viability,[3]; first compound 0.4 µM,0.723
same,relative viability,[3]; first compound 4 µM,0.654
same,relative viability,[4]; first compound 0.04 µM,0.708
same,relative viability,[4]; first compound 0.1265 µM,0.737
same,relative viability,[4]; first compound 0.4 µM,0.77
same,relative viability,[4]; first compound 4 µM,0.796
same,relative viability,[5]; first compound 0.04 µM,0.412
same,relative viability,[5]; first compound 0.1265 µM,0.44
same,relative viability,[5]; first compound 0.4 µM,0.364
same,relative viability,[5]; first compound 4 µM,0.347
same,relative viability,[6]; first compound 0.04 µM,0.701
same,relative viability,[6]; first compound 0.1265 µM,0.55
same,relative viability,[6]; first compound 0.4 µM,0.566
same,relative viability,[6]; first compound 4 µM,0.644
same,relative viability,[7]; first compound 0.04 µM,0.744
same,relative viability,[7]; first compound 0.1265 µM,0.743
same,relative viability,[7]; first compound 0.4 µM,0.677
same,relative viability,[7]; first compound 4 µM,0.669
same,relative viability,[8]; first compound 0.04 µM,0.423
same,relative viability,[8]; first compound 0.1265 µM,0.396
same,relative viability,[8]; first compound 0.4 µM,0.42
same,relative viability,[8]; first compound 4 µM,0.436
same,relative viability,[9]; first compound 0.04 µM,0.303
same,relative viability,[9]; first compound 0.1265 µM,0.897
same,relative viability,[9]; first compound 0.4 µM,0.947
same,relative viability,[9]; first compound 4 µM,1.48
same,relative viability,[10]; first compound 0.04 µM,0.197
same,relative viability,[10]; first compound 0.1265 µM,0.227
same,relative viability,[10]; first compound 0.4 µM,0.225
same,relative viability,[10]; first compound 4 µM,0.224
same,relative viability,[11]; first compound 0.04 µM,0.65
same,relative viability,[11]; first compound 0.1265 µM,0.676
same,relative viability,[11]; first compound 0.4 µM,0.688
same,relative viability,[11]; first compound 4 µM,0.732
same,relative viability,[12]; first compound 0.04 µM,0.229
same,relative viability,[12]; first compound 0.1265 µM,0.202
same,relative viability,[12]; first compound 0.4 µM,0.187
same,relative viability,[12]; first compound 4 µM,0.245
same,relative viability,[13]; first compound 0.04 µM,0.564
same,relative viability,[13]; first compound 0.1265 µM,0.589
same,relative viability,[13]; first compound 0.4 µM,0.605
same,relative viability,[13]; first compound 4 µM,0.584
same,relative viability,[14]; first compound 0.04 µM,0.526
same,relative viability,[14]; first compound 0.1265 µM,0.723
same,relative viability,[14]; first compound 0.4 µM,0.657
same,relative viability,[14]; first compound 4 µM,0.638
same,relative viability,[15]; first compound 0.04 µM,0.374
same,relative viability,[15]; first compound 0.1265 µM,0.354
same,relative viability,[15]; first compound 0.4 µM,0.419
same,relative viability,[15]; first compound 4 µM,0.419
same,relative viability,[16]; first compound 0.04 µM,0.498
same,relative viability,[16]; first compound 0.1265 µM,0.531
same,relative viability,[16]; first compound 0.4 µM,0.56
same,relative viability,[16]; first compound 4 µM,0.455
same,relative viability,[17]; first compound 0.04 µM,0.621
same,relative viability,[17]; first compound 0.1265 µM,0.594
same,relative viability,[17]; first compound 0.4 µM,0.558
same,relative viability,[17]; first compound 4 µM,0.59
same,relative viability,[18]; first compound 0.04 µM,0.259
same,relative viability,[18]; first compound 0.1265 µM,0.279
same,relative viability,[18]; first compound 0.4 µM,0.283
same,relative viability,[18]; first compound 4 µM,0.29
same,relative viability,[19]; first compound 0.04 µM,0.181
same,relative viability,[19]; first compound 0.1265 µM,0.204
same,relative viability,[19]; first compound 0.4 µM,0.172
same,relative viability,[19]; first compound 4 µM,0.14
same,relative viability,[20]; first compound 0.04 µM,0.249
same,relative viability,[20]; first compound 0.1265 µM,0.222
same,relative viability,[20]; first compound 0.4 µM,0.29
same,relative viability,[20]; first compound 4 µM,0.328
same,relative viability,[21]; first compound 0.04 µM,0.887
same,relative viability,[21]; first compound 0.1265 µM,1.05
same,relative viability,[21]; first compound 0.4 µM,0.948
same,relative viability,[21]; first compound 4 µM,0.827
same,relative viability,[22]; first compound 0.04 µM,0.386
same,relative viability,[22]; first compound 0.1265 µM,0.384
same,relative viability,[22]; first compound 0.4 µM,0.394
same,relative viability,[22]; first compound 4 µM,0.364
same,relative viability,[23]; first compound 0.04 µM,0.663
same,relative viability,[23]; first compound 0.1265 µM,0.689
same,relative viability,[23]; first compound 0.4 µM,0.641
same,relative viability,[23]; first compound 4 µM,0.724
CC(C)Oc1cc(Nc2nc(N[C@@H](C)c3ccc(F)cn3)ncc2Cl)n[nH]1 [AZ23] + Nc1ncn([C@H]2C[C@H](O)[C@@H](CO)O2)c(=O)n1 [Decitabine] (partner 2 µM),relative viability,[1]; first compound 0.01 µM,0.612
same,relative viability,[1]; first compound 0.03162 µM,0.615
same,relative viability,[1]; first compound 0.3162 µM,0.558
same,relative viability,[2]; first compound 0.01 µM,0.562
same,relative viability,[2]; first compound 0.03162 µM,0.747
same,relative viability,[2]; first compound 0.3162 µM,0.587
same,relative viability,[3]; first compound 0.01 µM,0.547
same,relative viability,[3]; first compound 0.03162 µM,0.65
same,relative viability,[3]; first compound 0.3162 µM,0.708
same,relative viability,[4]; first compound 0.01 µM,0.844
same,relative viability,[4]; first compound 0.03162 µM,0.705
same,relative viability,[4]; first compound 0.3162 µM,0.697
same,relative viability,[5]; first compound 0.01 µM,0.409
same,relative viability,[5]; first compound 0.03162 µM,0.451
same,relative viability,[5]; first compound 0.3162 µM,0.414
same,relative viability,[6]; first compound 0.01 µM,0.514
same,relative viability,[6]; first compound 0.03162 µM,0.626
same,relative viability,[6]; first compound 0.3162 µM,0.513
same,relative viability,[7]; first compound 0.01 µM,0.711
same,relative viability,[7]; first compound 0.03162 µM,0.755
same,relative viability,[7]; first compound 0.3162 µM,0.672
same,relative viability,[8]; first compound 0.01 µM,0.411
same,relative viability,[8]; first compound 0.03162 µM,0.455
same,relative viability,[8]; first compound 0.3162 µM,0.469
same,relative viability,[9]; first compound 0.01 µM,1
same,relative viability,[9]; first compound 0.03162 µM,1.22
same,relative viability,[9]; first compound 0.3162 µM,0.96
same,relative viability,[10]; first compound 0.03162 µM,0.259
same,relative viability,[10]; first compound 0.3162 µM,0.239
same,relative viability,[11]; first compound 0.01 µM,0.725
same,relative viability,[11]; first compound 0.03162 µM,0.777
same,relative viability,[11]; first compound 0.3162 µM,0.728
same,relative viability,[12]; first compound 0.01 µM,0.282
same,relative viability,[12]; first compound 0.03162 µM,0.21
same,relative viability,[12]; first compound 0.3162 µM,0.195
same,relative viability,[13]; first compound 0.01 µM,0.565
same,relative viability,[13]; first compound 0.03162 µM,0.539
same,relative viability,[13]; first compound 0.3162 µM,0.5
same,relative viability,[14]; first compound 0.01 µM,0.533
same,relative viability,[14]; first compound 0.03162 µM,0.668
same,relative viability,[14]; first compound 0.3162 µM,0.7
same,relative viability,[15]; first compound 0.01 µM,0.469
same,relative viability,[15]; first compound 0.03162 µM,0.374
same,relative viability,[15]; first compound 0.3162 µM,0.403
same,relative viability,[16]; first compound 0.01 µM,0.567
same,relative viability,[16]; first compound 0.03162 µM,0.512
same,relative viability,[16]; first compound 0.3162 µM,0.519
same,relative viability,[17]; first compound 0.01 µM,0.654
same,relative viability,[17]; first compound 0.03162 µM,0.596
same,relative viability,[17]; first compound 0.3162 µM,0.663
same,relative viability,[18]; first compound 0.01 µM,0.293
same,relative viability,[18]; first compound 0.03162 µM,0.272
same,relative viability,[18]; first compound 0.3162 µM,0.269
same,relative viability,[19]; first compound 0.01 µM,0.261
same,relative viability,[19]; first compound 0.03162 µM,0.214
same,relative viability,[19]; first compound 0.3162 µM,0.179
same,relative viability,[20]; first compound 0.01 µM,0.294
same,relative viability,[20]; first compound 0.03162 µM,0.248
same,relative viability,[20]; first compound 0.3162 µM,0.239
same,relative viability,[21]; first compound 0.01 µM,0.966
same,relative viability,[21]; first compound 0.03162 µM,0.998
same,relative viability,[21]; first compound 0.3162 µM,0.949
same,relative viability,[22]; first compound 0.03162 µM,0.344
same,relative viability,[22]; first compound 0.3162 µM,0.389
same,relative viability,[23]; first compound 0.01 µM,0.701
same,relative viability,[23]; first compound 0.03162 µM,0.736
same,relative viability,[23]; first compound 0.3162 µM,0.679
